From patent US20040002842A1, “Methods and systems for analyzing complex biological systems” (priority 2001, published 2004)

How the values were obtained:
Type in all cases: cell-based
[1] = system: Saccharomyces cerevisiae wild type strain BY4743; assay: AF1 yeast gene expression analysis (microarray, KEGG pathway mapping); details: for # Transcripts perturbed by treatment: 2×MIC, two hours; for Number of Pathways Affected by at Least One Gene, # Pathways: p < 0.05, KEGG mapping
Method: Saccharomyces cerevisiae wild type strain BY4743 was purchased from American Type Culture Center (ATCC, Manassas, Va.). The yeast strain was grown in YPD or SD media. H. […] The cultures started from fresh single colonies were grown in 1.0 ml YPD overnight at 30° C. […] The OD600 was adjusted to 1.0 with YPD media, then 2.0 ml of each was inoculated into three 250 ml flasks, each containing 50 ml of SD media. […] The cells were kept growing for another two hours, then collected by centrifugation at 4000 rpm for 5 minutes at 4° C. Pellets were washed once with ice-cold water, then were lyophilized overnight at 4° C. […] Tubes were vortexed for 30 seconds, then incubated for 10 minutes at room temperature (RT). […] Tubes were incubated for 10 minutes at RT. Samples were centrifuged for 20 minutes as before. Pellets were washed with 400 μl 70% ethanol and centrifuged for 10 minutes as before. The pellet was then dissolved in 100 μl nuclease-free water. RNA quality was determined using the Bioanalyzer 2100 and the RNA 6000 assay (Agilent Technologies, Palo Alto, Calif.) according to manufacturer's instructions. RNA concentrations were determined spectrophotometrically by measuring the absorption at 260 nm in an Ultrospec 2000 (Pharmacia Biotech, Piscataway, N.J.). […] Labeled cRNAs were evaluated using the RNA 6000 assay on the Agilent Bioanalyzer 2100. Labeled cRNA concentrations were determined spectrophotometrically by measuring the absorption at 260 nm in an Ultrospec 2000 (Pharmacia Biotech, Piscataway, N.J.). […] Each pair of samples to be hybridized were independently labeled and hybridized utilizing a fluor reversal for a total of two hybridizations per sample pair. The microarrays were scanned simultaneously in the Cy3 and Cy5 channels with Agilent's 48-slide, Dual Laser DNA Microarray Scanner (Agilent Technologies, Palo Alto, Calif.) at 10 μm resolution using default settings. Image Analysis Software (Version A.4.0.45, Agilent Technologies, Palo Alto, Calif.) was used for image analysis. Each feature was determined from an array's associated pattern file and a detection algorithm. Intensity values for each feature were determined after subtracting background derived from an average of negative control features. Features with unusual pixel intensity statistics (e.g., high non-uniformity, saturation in either channel, and the like) were excluded from downstream analyses. Data was loaded into the Rosetta RESOLVER database (Rosetta Inpharmatics Inc., Kirkland, Wash.) for storage and analysis. Data was evaluated after combining results from fluor reversal replicate hybridizations. The annotation of yeast ORFs was obtained from Proteome BIOKNOWLEDGE Library (Incyte Genomics, Palo Alto, Calif.). In AF1, two different technologies were utilized: gene expression analysis (for examination of mRNA expression) and metabolite analysis. […] As noted previously, existing metabolic databases may be helpful in practicing the methods and systems of the present invention, but many databases include limitations that make their use in data analysis and pathway mapping less than straightforward. […] This caveat to KEGG makes it difficult to pinpoint the correct pathway when attempting to link a gene to a specific pathway. The pathway score indicates how meaningful the mapping is, or how likely it is to be correctly indicative of the pathway involved in the perturbation under examination. The method provides a pathway score based on perturbation levels of genes and/or compounds and the information content of each gene and/or compound in the pathway, i.e., a pathway score indicates the extent to which other pathways are mapped to a gene/compound. For example, imagine that two genes are perturbed in a particular experiment.

[2] = system: Saccharomyces cerevisiae wild type strain BY4743; assay: AF1 yeast metabolite analysis by GC-MS and LC-MS; details: for # Compounds perturbed by treatment: 2×MIC, two hours
[3] = system: Saccharomyces cerevisiae wild type strain BY4743; assay: AF1 combined gene expression and metabolite data (reactions, pathways, cluster analysis)
From the text: The data were then combined to determine the number of reactions showing an enzyme and at least one compound perturbed, and to determine the number of pathways having at least one enzyme and one perturbed compound perturbed. The results of the analysis are represented in Tables 16 and 17, and were difficult to interpret, illustrating that the ability to draw conclusions from compound mapping to pathways is limited when absent additional data. […] A coherent data set was created from data obtained from the four above-described drug compounds. The data were reduced by using principle components analysis and cluster analysis.

Structure (SMILES): C[C@@H]1[C@H](O)[C@@H](C)/C=C/C=C/C=C/C=C/C=C/C=C/C=C/[C@H](O[C@@H]2O[C@H](C)[C@@H](O)[C@H](N)[C@@H]2O)C[C@@H]2O[C@](O)(C[C@@H](O)C[C@@H](O)[C@H](O)CC[C@@H](O)C[C@@H](O)CC(=O)O[C@H]1C)C[C@H](O)[C@H]2C(=O)O [Amphoteracin B]
- # Transcripts perturbed by treatment ([1]; P < 0.05): 4363
- # Transcripts perturbed by treatment ([1]; P < 0.1): 4652
- Number of Pathways Affected by at Least One Gene, # Pathways [1]: 97
- # Compounds perturbed by treatment ([2]; P < 0.05): 16
- # Compounds perturbed by treatment ([2]; P < 0.1): 21
- Number of Reactions Having an Enzyme and at Least One Compound Perturbed, # Reactions [3]: 54

Structure (SMILES): OC(Cn1cncn1)(Cn1cncn1)c1ccc(F)cc1F [Fluconazole]
- Number of Pathways Affected by at Least One Gene, # Pathways [1]: 79
- # Compounds perturbed by treatment ([2]; P < 0.05): 2
- # Compounds perturbed by treatment ([2]; P < 0.1): 6
- Fold Change: TMS mevalonic acid lactone ([2]; Platform GC): 0.1434
- Fold Change: squalene ([2]; Platform GC): 0.1999
- Fold Change: sugar? ([2]; Platform GC): 0.4817
- Fold Change: tetradecanoic acid ([2]; Platform GC): 0.07967
- Fold Change: threonine2 ([2]; Platform GC): 0.5053
- Fold Change: threonine3 ([2]; Platform GC): 0.2513
- Fold Change: tms glutamine3 ([2]; Platform GC): 0.7271
- Fold Change: tms lysine4 ([2]; Platform GC): 0.3657
- Fold Change: tms tyrosine2 ([2]; Platform GC): 0.8643
- Fold Change: tms tyrosine3 ([2]; Platform GC): 0.3321
- Fold Change: valine ([2]; Platform GC): 0.2727
- Fold Change, benzoic acid ([2]; Platform nLC): 0
- Fold Change: retinoic acid ([2]; Platform nLC): 0
- Fold Change: salicylic/HObenzoic ([2]; Platform nLC): 0
- Fold Change: selenoDLmethionine ([2]; Platform nLC): −0.5748
- Fold Change: serine ([2]; Platform nLC): 0.3936
- Fold Change: shikimic acid ([2]; Platform nLC): 0
- Fold Change: sinapinic acid ([2]; Platform nLC): 0
- Fold Change: sorbitol/mannitol ([2]; Platform nLC): 0.365
- Fold Change: succinic ([2]; Platform nLC): 0.3094
- Fold Change: sucrose ([2]; Platform nLC): 0.3104
- Fold Change: sugar-phosphate ([2]; Platform nLC): −0.05306
- Fold Change: tetradecanoic acid ([2]; Platform nLC): 0.5495
- Fold Change: threonine/homoserin ([2]; Platform nLC): 0.3257
- Fold Change: thymine ([2]; Platform nLC): 0
- Fold Change: tryptophan ([2]; Platform nLC): 1.649
- Fold Change: tyrosine ([2]; Platform nLC): 0.2303
- Fold Change: uracil ([2]; Platform nLC): 1.256
- Fold Change: uridine ([2]; Platform nLC): 0.3463
- Fold Change: urocanic acid ([2]; Platform nLC): 0
- Fold Change: valine ([2]; Platform nLC): 0.3235
- Fold Change: xanthosineDiH2O ([2]; Platform nLC): 0
- Fold Change: zeatin ([2]; Platform nLC): 0
- Fold Change: riboflavin ([2]; Platform pLC): 0
- Fold Change: selenoDLmethionine ([2]; Platform pLC): −0.6865
- Fold Change: serine ([2]; Platform pLC): 0.11
- Fold Change: sugar-phosphate ([2]; Platform pLC): 0
- Fold Change: thiamine ([2]; Platform pLC): 0
- Fold Change: threonine/homoserin ([2]; Platform pLC): 0.1604
- Fold Change: thymine ([2]; Platform pLC): 0
- Fold Change: tryptophan ([2]; Platform pLC): 0
- Fold Change: tyrosine ([2]; Platform pLC): 0.1099
- Fold Change: uric acid ([2]; Platform pLC): 0
- Fold Change: urocanic acid ([2]; Platform pLC): 0
- Fold Change: xanthosine(diH2O) ([2]; Platform pLC): 0
- Fold Change: zeatin ([2]; Platform pLC): 0
- Number of Reactions Having an Enzyme and at Least One Compound Perturbed, # Reactions [3]: 2

Structure (SMILES): CC(=O)N1CCN(c2ccc(OCC3COC(Cn4ccnc4)(c4ccc(Cl)cc4Cl)O3)cc2)CC1 (centres unmarked) [Ketoconazole]
- Number of Pathways Affected by at Least One Gene, # Pathways [1]: 90
- # Compounds perturbed by treatment ([2]; P < 0.1): 15
- Number of Reactions Having an Enzyme and at Least One Compound Perturbed, # Reactions [3]: 21
